# Data taken from ChEMBL document CHEMBL1201862, “PubChem BioAssay data set” (2004).
# The source made the active and inactive calls. For most assays here, no stated cut-off is given here; in the data, actives have a measured EC50 and inactives only a lower limit.
# Tests used:
# cells [1] = type: functional, cell-based
# cells [2] = type: functional, cell-based; remark: listed apart in the source
# Paired box protein Pax-8 = Paired box protein Pax-8 (Homo sapiens, UniProt Q06710); assay: PAX8 transcriptional activity inhibition in RMG-I – RMG-I cells, luciferase, cherry-pick, dose response (AID 687027); type: functional, cell-based;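 further: luciferase reporter driven by Pax8 target thyroperoxidase promoter measured by SteadyGlo luminescence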
# Sequence of Paired box protein Pax-8 (Q06710 whole entry): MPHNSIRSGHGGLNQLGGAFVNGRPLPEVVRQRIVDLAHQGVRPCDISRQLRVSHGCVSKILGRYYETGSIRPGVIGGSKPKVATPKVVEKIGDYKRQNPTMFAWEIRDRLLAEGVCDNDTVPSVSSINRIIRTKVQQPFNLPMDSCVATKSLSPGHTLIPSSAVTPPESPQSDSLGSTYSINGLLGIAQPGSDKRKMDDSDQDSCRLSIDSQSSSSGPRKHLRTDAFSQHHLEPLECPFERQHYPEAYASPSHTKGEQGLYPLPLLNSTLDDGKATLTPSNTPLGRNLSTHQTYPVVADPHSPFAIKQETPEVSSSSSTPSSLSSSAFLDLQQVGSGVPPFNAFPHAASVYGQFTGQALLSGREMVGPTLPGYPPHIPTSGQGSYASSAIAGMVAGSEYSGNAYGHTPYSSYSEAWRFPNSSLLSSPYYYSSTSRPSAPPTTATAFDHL
# [3] = biological target: T1, Polyadenylate-binding protein 1 (Homo sapiens, UniProt P11940); assay: MLLE binding blockers, Cy5 peptide tracer – biochemical, fluorescence polarization, Cy5-PAM2 peptide, secondary, miRNA deadenylation inhibitor project, dose response (AID 602260); type: functional; settings: read-out: IC50_Mean
# T1 sequence (P11940 whole entry, the tested form may be a part): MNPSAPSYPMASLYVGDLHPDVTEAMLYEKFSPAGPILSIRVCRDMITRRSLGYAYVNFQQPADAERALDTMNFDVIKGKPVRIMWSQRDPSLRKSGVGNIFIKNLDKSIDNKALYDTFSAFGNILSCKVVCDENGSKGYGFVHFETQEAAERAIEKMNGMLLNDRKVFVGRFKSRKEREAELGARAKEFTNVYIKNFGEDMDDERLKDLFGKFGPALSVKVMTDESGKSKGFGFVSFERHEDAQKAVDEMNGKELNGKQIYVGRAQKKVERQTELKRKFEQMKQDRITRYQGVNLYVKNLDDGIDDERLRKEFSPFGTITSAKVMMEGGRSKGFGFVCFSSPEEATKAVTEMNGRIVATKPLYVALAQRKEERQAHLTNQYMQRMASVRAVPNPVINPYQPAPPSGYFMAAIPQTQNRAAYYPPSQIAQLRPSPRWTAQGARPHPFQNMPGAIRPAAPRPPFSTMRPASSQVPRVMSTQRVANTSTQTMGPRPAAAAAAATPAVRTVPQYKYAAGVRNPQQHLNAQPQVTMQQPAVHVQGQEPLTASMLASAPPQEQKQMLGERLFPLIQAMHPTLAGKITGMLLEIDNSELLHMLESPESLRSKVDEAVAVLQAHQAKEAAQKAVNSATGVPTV
# [4] = biological target: T1, Polyadenylate-binding protein 1; assay: MLLE domain peptide-binding blockers, IC50 – biochemical, fluorescence polarization, FITC-PAM2 peptide, dose response (AID 602259); type: functional; settings: read-out: IC50_Mean
# [5] = biological target: Luciferin 4-monooxygenase (Photinus pyralis, UniProt P08659); assay: inhibition of purified Photinus pyralis luciferase – biochemical, luminescence, dose response (AID 1891)
# Sequence of Luciferin 4-monooxygenase (P08659 whole entry): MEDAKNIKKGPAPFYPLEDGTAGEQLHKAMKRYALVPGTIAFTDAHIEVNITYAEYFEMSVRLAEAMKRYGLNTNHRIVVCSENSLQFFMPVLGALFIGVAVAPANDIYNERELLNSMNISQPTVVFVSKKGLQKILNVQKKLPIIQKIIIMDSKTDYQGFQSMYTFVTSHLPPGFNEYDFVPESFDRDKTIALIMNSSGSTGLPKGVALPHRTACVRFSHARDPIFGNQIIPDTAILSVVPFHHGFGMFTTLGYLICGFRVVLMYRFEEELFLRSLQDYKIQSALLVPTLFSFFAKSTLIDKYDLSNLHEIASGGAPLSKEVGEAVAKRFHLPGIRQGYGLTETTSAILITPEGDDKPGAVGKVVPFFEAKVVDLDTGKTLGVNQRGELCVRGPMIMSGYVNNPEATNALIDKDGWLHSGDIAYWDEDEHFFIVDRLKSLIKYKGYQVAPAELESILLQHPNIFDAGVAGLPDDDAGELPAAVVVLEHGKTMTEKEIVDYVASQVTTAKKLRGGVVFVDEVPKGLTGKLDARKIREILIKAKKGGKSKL
# [6] = Luminescence Cell-Based Dose Confirmation HTS to Identify Inhibitors of Platelet Dense Granule Release. [Related pubchem assays: 1663 (Primary HTS), 1678 (Summary of Project)]; type: functional
# INS1 = assay: INS-1E survival protection against cytokine death – cell-based, luminescence, retest, dose response (AID 449756); type: functional; settings: Rattus norvegicus;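 further: cell death triggered by IL-1 beta plus TNF-alpha plus IFN-gamma mixture; protective hits raise ATP signal compared with cytokine alone wells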
# [7] = biological target: T2, RNA-binding protein pos-1 (Caenorhabditis elegans, UniProt G5EF15); assay: disruptors of C. elegans POS-1 RNA interaction – biochemical, fluorescence polarization, dose response (AID 1964);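 further: purified POS-1 fused to maltose binding protein made in E. coli; potency of compounds blocking POS-1 binding to fluorescent RNA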
# T2 sequence (G5EF15 whole entry): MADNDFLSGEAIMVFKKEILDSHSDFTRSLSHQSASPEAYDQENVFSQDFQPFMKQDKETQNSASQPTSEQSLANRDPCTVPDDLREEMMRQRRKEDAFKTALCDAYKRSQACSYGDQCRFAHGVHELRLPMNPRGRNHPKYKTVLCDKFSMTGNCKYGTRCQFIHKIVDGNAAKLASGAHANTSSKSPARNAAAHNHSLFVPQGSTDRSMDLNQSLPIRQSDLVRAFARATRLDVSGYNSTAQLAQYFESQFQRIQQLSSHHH
# [8] = biological target: T3, Zinc finger protein mex-5 (Caenorhabditis elegans, UniProt Q9XUB2); assay: potency of MEX-5 RNA-binding blockers – biochemical, C. elegans, fluorescence polarization, dose response (AID 1960)
# T3 sequence (Q9XUB2 whole entry): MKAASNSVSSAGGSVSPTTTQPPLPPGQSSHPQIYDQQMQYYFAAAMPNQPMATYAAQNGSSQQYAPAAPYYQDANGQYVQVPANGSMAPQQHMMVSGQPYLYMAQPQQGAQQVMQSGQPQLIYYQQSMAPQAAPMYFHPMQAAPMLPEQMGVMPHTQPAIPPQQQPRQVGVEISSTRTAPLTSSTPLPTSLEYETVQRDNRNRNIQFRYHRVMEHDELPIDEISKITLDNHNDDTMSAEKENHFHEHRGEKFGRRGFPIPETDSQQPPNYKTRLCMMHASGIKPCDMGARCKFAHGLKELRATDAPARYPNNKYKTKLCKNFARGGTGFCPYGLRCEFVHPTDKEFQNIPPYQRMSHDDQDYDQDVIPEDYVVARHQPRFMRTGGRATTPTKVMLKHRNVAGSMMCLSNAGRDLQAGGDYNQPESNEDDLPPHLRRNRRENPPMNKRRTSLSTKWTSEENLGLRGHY
# [9] = biological target: T4, Heat shock factor protein 1 (Mus musculus, UniProt P38532); assay: enhancement of HSF1-driven luciferase signal – cell-based, NIH3T3, luminescence, dose retest, confirmation (AID 435004); type: functional;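 further: stress induced by proteasome inhibitor MG132 added 30 min after compound; luciferase reporter driven by HSF1 response element in NIH3T3 cells; actives raise luminescence as potentiators of the MG132 stress response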
# T4 sequence (P38532 whole entry): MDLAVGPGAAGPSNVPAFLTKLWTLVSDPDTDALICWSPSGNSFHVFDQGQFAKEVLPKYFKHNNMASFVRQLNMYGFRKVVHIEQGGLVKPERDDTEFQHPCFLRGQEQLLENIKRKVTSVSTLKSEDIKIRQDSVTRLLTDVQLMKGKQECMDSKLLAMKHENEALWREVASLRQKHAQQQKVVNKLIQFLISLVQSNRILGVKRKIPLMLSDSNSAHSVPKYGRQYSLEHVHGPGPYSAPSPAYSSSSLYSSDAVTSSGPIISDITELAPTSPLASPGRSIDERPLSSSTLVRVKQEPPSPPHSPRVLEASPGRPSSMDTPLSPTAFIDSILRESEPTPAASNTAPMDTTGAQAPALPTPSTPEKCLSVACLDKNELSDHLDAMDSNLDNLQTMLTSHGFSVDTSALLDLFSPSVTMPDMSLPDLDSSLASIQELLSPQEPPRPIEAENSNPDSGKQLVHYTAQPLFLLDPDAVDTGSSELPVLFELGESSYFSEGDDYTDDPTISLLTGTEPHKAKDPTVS
smiles,measurement,setting,value
COC(=O)c1cn(C)c2ccc(S(=O)(=O)N3CCCCC3)cc2c1=O,EC50,cells [1],> 350 µM (not active)
same,EC50,cells [2],> 350 µM (not active)
Cc1ccccc1/N=C1\N=C(N)c2ccccc21,AC50,Paired box protein Pax-8,17.3 µM (active)
CCOc1ccc(N2C(=O)CC(Sc3ccccc3C(=O)O)C2=O)c([N+](=O)[O-])c1 (configuration not stated),IC50,[3],> 66 µM (inactive)
same,IC50,[4],> 66 µM (inactive)
COc1ccccc1NS(=O)(=O)c1ccc(O)c(NC(S)=NCC2CCCO2)c1 (configuration not stated),IC50,[3],> 66 µM (inactive)
same,IC50,[4],> 66 µM (inactive)
CCOc1ccc(NC(O)=C2C(=O)NC(=O)NC2=O)cc1,EC50,[5],1.42 µM (active)
same,EC50,[6],9.93 µM (active)
CC(C)(C)n1nc2c3c(ccc2c1O)C(=O)c1ccccc1C3=O,AC50,INS1,2.98 µM (active)
Cc1nnc(N2C(=O)C(O)=C(C(=O)c3ccco3)C2c2cccc3ccccc23)s1 (configuration not stated),EC50,[7],> 300 µM (not active)
same,EC50,[8],> 300 µM (not active)
O=C(NCc1nc2ccccc2[nH]1)c1c(F)c(F)c(F)c(F)c1F,EC50,cells [1],> 350 µM (not active)
same,EC50,cells [2],> 350 µM (not active)
COc1ccc(Oc2nc(-c3ccccc3)ncc2S(=O)(=O)c2ccccc2)cc1,EC50,[5],> 112 µM (not active)
same,EC50,[6],> 112 µM (not active)
O=C(OCCCCN1C(=O)c2ccccc2C1=O)c1ccc(S(=O)(=O)N2CCCC2)cc1,EC50,[5],> 112 µM (not active)
same,EC50,[6],> 112 µM (not active)
Cc1cc(C)c(O)c(NC(=S)NC(=O)Cc2ccccc2)c1,IC50,[3],> 66 µM (inactive)
same,IC50,[4],> 66 µM (inactive)
C=CCSc1nnc(N2C(=O)C(O)=C(C(=O)c3ccco3)C2c2ccc(F)cc2)s1 (configuration not stated),EC50,[7],114 µM (active)
same,EC50,[8],87.6 µM (active)
same,EC50,[9],> 260 µM (inactive)
COc1ccc(CNC(=O)c2cnc3cc(C)ccn3c2=O)cc1,EC50,[7],> 300 µM (not active)
same,EC50,[8],> 300 µM (not active)
Cc1c(N=C(S)NNC(=O)CCC(=O)O)c(=O)n(-c2ccccc2)n1C,EC50,[5],> 112 µM (not active)
same,EC50,[6],> 112 µM (not active)
O=C(c1ccco1)N1CCN(Cc2nc(-c3cccs3)no2)CC1,EC50,[5],> 112 µM (not active)
same,EC50,[6],> 112 µM (not active)
O=C(Nc1cc(=O)[nH]c2ncnn12)c1ccc(Cl)cc1Cl,EC50,[7],43.5 µM (inconclusive)
same,EC50,[8],20.5 µM (inconclusive)
Cc1ccc(CN2[C@@H](CC(C)C)COCCS2(=O)=O)cc1,EC50,cells [1],> 350 µM (not active)
same,EC50,cells [2],72.7 µM (active)
COc1ccc(N2C(=O)/C(=C/c3ccc(N(C)C)o3)C(=O)NC2=S)cc1,EC50,[7],> 300 µM (not active)
same,EC50,[8],> 150 µM (inconclusive)
Cc1cccn2c(Nc3ccccc3)c(-c3ccccn3)nc12,AC50,INS1,5.84 µM (active)
CCCCN(C)C(=O)c1cccc(OC2CCN(CC(C)(C)C)CC2)c1,EC50,[7],> 300 µM (not active)
same,EC50,[8],> 300 µM (inconclusive)
CCOc1cc(C2C3=C(CCCC3=O)N(CC(=O)O)C3=C2C(=O)CCC3)ccc1OC,IC50,[3],> 66 µM (inactive)
same,IC50,[4],> 66 µM (inactive)
O=C(CCCc1ccccc1)Nc1nnc(C(F)(F)F)s1,EC50,[5],> 112 µM (not active)
same,EC50,[6],> 112 µM (not active)
